Measurements: PubChem BioAssay AID1259411 (Chemical Carcinogenesis Research Information System (CCRIS), 2018)
Activity calls are given as the source filed them. The rule behind the calls is not given here.

Test system: rodent carcinogenicity bioassays, tumor incidence
Assay: CCRIS carcinogenicity studies
Method in brief: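 NCI-built, expert-reviewed records of carcinogenicity and related test outcomes (mutagenicity, tumor promotion/inhibition) compiled from published and report sources, historical span 1985-2011, not updated.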

Which results are given for Nc1cc2c3c(ccc2c2ccccc12)[C@H](O)[C@@H](O)C=C3?
carcinogen call (Species: MOUSE, Strain/Sex: SWISS/FEMALE, Route: INTRAPERITONEAL, Dose: 0, 100 NMOL (TOTAL DOSE) 1/7, 2/7 AND 4/7 ADMINISTERED ON DAYS 1, 8 AND 15 OF LIFE RESPECTIVELY (STUDY DURATION: 32 WK), Tumor Site: Type of Lesion: LUNG: TUMOR): active; positive; carcinogen call (Species: MOUSE, Strain/Sex: SWISS/MALE, Route: INTRAPERITONEAL, Dose: 0, 100 NMOL (TOTAL DOSE) 1/7, 2/7 AND 4/7 ADMINISTERED ON DAYS 1, 8 AND 15 OF LIFE RESPECTIVELY (STUDY DURATION: 32 WK), Tumor Site: Type of Lesion: LUNG: TUMOR, LIVER: TUMOR): active; positive

How did the carcinogen call (Species: MOUSE, Route: INTRAPERITONEAL, Tumor Site: Type of Lesion: LUNG) turn out when COCCOC1=C(N2CC2)C(=O)C(OCCOC)=C(N2CC2)C1=O was run?
The carcinogen call was “active; positive”.

What does the source list for Nc1ccc(Nc2ccccc2)cc1?
carcinogen call (Species: MOUSE, Strain/Sex: B6C3F1/FEMALE, Route: ORAL, Dose: 0, 3672, 8170 PPM IN DIET, TWA, Dose: 0, 3672, 8170 PPM IN DIET, TWA): inactive; negative; carcinogen call (Species: MOUSE, Strain/Sex: B6C3F1/MALE, Route: ORAL, Dose: 0, 2057, 4114 PPM IN DIET, TWA, Dose: 0, 2057, 4114 PPM IN DIET, TWA): inactive; negative; carcinogen call (Species: RAT, Strain/Sex: F344/FEMALE, Route: ORAL, Dose: 0, 600, 1200 PPM IN DIET, Dose: 0, 600, 1200 PPM IN DIET): inactive; negative; carcinogen call (Species: RAT, Strain/Sex: F344/MALE, Route: ORAL, Dose: 0, 600, 1200 PPM IN DIET, Dose: 0, 600, 1200 PPM IN DIET): inactive; negative

How did the carcinogen call (Species: MOUSE, Strain/Sex: SWISS/FEMALE, Route: SUBCUTANEOUS, Dose: 0, 200 UG IN 0.02 ML 3% AQUEOUS GELATIN 1/D FOR 3 D (STUDY DURATION: 52 WK)) turn out when Nc1ccc(-c2ccccc2)cc1O was run?
The carcinogen call was “inactive; negative”.

What about the carcinogen call (Species: MOUSE, Strain/Sex: SWISS/MALE, Route: SUBCUTANEOUS, Dose: 0, 200 UG IN 0.02 ML 3% AQUEOUS GELATIN 1/D FOR 3 D (STUDY DURATION: 52 WK), Tumor Site: Type of Lesion: LIVER: HEPATOMA) of the same molecule?
The carcinogen call was “active; positive”.

Oc1cc(O)c2c(c1)O[C@H](c1ccc(O)c(O)c1)[C@@H](O)C2 was tested. Which carcinogen call (Species: RAT, Strain/Sex: F344/FEMALE, Route: ORAL, Dose: 0, 2% IN DIET FOR 104 WK (STUDY DURATION: 104 WK), Tumor Site: Type of Lesion: GLANDULAR STOMACH: ADENOCARCINOMA) did it give?
Its carcinogen call is “active; positive”.

And the carcinogen call (Species: RAT, Strain/Sex: F344/MALE, Route: ORAL, Dose: 0, 2% IN DIET FOR 104 WK (STUDY DURATION: 104 WK), Tumor Site: Type of Lesion: GLANDULAR STOMACH: ADENOCARCINOMA)?
The carcinogen call was “active; positive”.

Which carcinogen call (Species: Mouse, Strain/Sex: CD-1/Female (52/Group), Dose: 0, 40, 150, 600 ppm of 91.4 - 92.5 % fenpropathrin in diet for 2 yr, study duration 2 yr, Dose: 0, 40, 150, 600 ppm of 91.4 - 92.5 % fenpropathrin in diet for 2 yr, study duration 2 yr) does the source give for CC1(C)C(C(=O)OC(C#N)c2cccc(Oc3ccccc3)c2)C1(C)C (centres undefined) here?
The carcinogen call was “inactive; negative”.

What about the carcinogen call (Species: Mouse, Strain/Sex: CD-1/Male (52/Group), Dose: 0, 40, 150, 600 ppm of 91.4 - 92.5 % fenpropathrin in diet for 2 yr, study duration 2 yr, Dose: 0, 40, 150, 600 ppm of 91.4 - 92.5 % fenpropathrin in diet for 2 yr, study duration 2 yr) of the same molecule?
Its carcinogen call is “inactive; negative”.

What about the carcinogen call (Species: Rat, Strain/Sex: CD/Female (50/Group), Route: Oral, Dose: 0, 50, 150, 450 ppm of 91.4-92.5% fenpropathrin in diet for >52 wk, study duration up to 2 yr, Dose: 0, 50, 150, 450 ppm of 91.4-92.5% fenpropathrin in diet for >52 wk, study duration up to 2 yr) of the same molecule?
The carcinogen call was “inactive; negative”.

What about the carcinogen call (Species: Rat, Strain/Sex: CD/Male (50/Group), Route: Oral, Dose: 0, 50, 150, 450 ppm of 91.4-92.5% fenpropathrin in diet for >52 wk, study duration up to 2 yr, Dose: 0, 50, 150, 450 ppm of 91.4-92.5% fenpropathrin in diet for >52 wk, study duration up to 2 yr) of the same molecule?
The carcinogen call was “inactive; negative”.

Which carcinogen call (Species: MOUSE, Strain/Sex: CD-1/FEMALE, Route: INTRAPERITONEAL, Dose: 0, 28 NMOL (TOTAL DOSE) ADMINISTERED AS 1/7 OF DOSE WITHIN 24 HR AFTER BIRTH, 2/7 OF DOSE AT 8 D OLD, 4/7 OF DOSE AT 15, Tumor Site: Type of Lesion: LUNG: TUMOR) does the source give for O[C@@H]1[C@@H]2O[C@@H]2c2c(ccc3cc4ccc5ccccc5c4nc23)[C@H]1O here?
The carcinogen call was “active; positive”.

And the carcinogen call (Species: MOUSE, Strain/Sex: CD-1/FEMALE, Route: INTRAPERITONEAL, Dose: 0, 70, 175 NMOL (TOTAL DOSE) ADMINISTERED AS 1/7 OF DOSE WITHIN 24 HR AFTER BIRTH, 2/7 OF DOSE AT 8 D OLD, 4/7 OF DOSE A, Dose: 0, 70, 175 NMOL (TOTAL DOSE) ADMINISTERED AS 1/7 OF DOSE WITHIN 24 HR AFTER BIRTH, 2/7 OF DOSE AT 8 D OLD, 4/7 OF DOSE A, Tumor Site: Type of Lesion: LIVER: TUMOR, LUNG: TUMOR)?
The carcinogen call was “active; positive”.

And the carcinogen call (Species: MOUSE, Strain/Sex: CD-1/MALE, Route: INTRAPERITONEAL, Dose: 0, 28 NMOL (TOTAL DOSE) ADMINISTERED AS 1/7 OF DOSE WITHIN 24 HR AFTER BIRTH, 2/7 OF DOSE AT 8 D OLD, 4/7 OF DOSE AT 15, Tumor Site: Type of Lesion: LIVER: TUMOR, LUNG: TUMOR)?
The carcinogen call was “active; positive”.

What about the carcinogen call (Species: MOUSE, Strain/Sex: CD-1/MALE, Route: INTRAPERITONEAL, Dose: 0, 70, 175 NMOL (TOTAL DOSE) ADMINISTERED AS 1/7 OF DOSE WITHIN 24 HR AFTER BIRTH, 2/7 OF DOSE AT 8 D OLD, 4/7 OF DOSE A, Dose: 0, 70, 175 NMOL (TOTAL DOSE) ADMINISTERED AS 1/7 OF DOSE WITHIN 24 HR AFTER BIRTH, 2/7 OF DOSE AT 8 D OLD, 4/7 OF DOSE A, Tumor Site: Type of Lesion: LIVER: TUMOR, LUNG: TUMOR) of the same molecule?
The carcinogen call was “active; positive”.
